# Tested on: Ascaris suum muscle strip
# Test: Ascaris suum muscle tension assay
# Conditions: 30 uM final bath concentration; 2 cm Ascaris suum muscle strip in Ascaris Ringers Solution, 37°
# Method: Compounds of the invention were evaluated in an allatostatin receptor binding assay as has been described (Larsen, M. J. et. al., Biochemical and Biophysical […] Communications, 2001, 286, 895-901; Lowery, D. E., et. al., 2001, WO 01/31005). Anthelmintic activity was evaluated in a Ascaris suum muscle tension assay as has been described (Bowman, J. W., et. al., J Neurophys., 1995, 74(5), 1880-8; Davis, R. E., et. al., J. Neurosci., 1989, 9, 403-414). As previously described (Bowman, op.cit.), a 2 cm segment of Ascaris suum muscle strip was suspended in a muscle bath filled with 37° Ascaris Ringers Solution {ARS; in mM: KCl (24.5), CaCl2 (5.9), MgCl2 (4.9), NaCl (4), NaC2 H3O2 (125) and Tris (5); pH 7.4}. The preparations were initially set at 12-15 g of tension and allowed to stabilize for approximately 15-30 minutes before drug treatment. Test compounds were added by pipet to the bath with final concentration of 30 uM reflecting the dilution in the test chamber. Raw data was collected from the BioReportTM program.
row,Compound,Activity
1,COc1ccc(C(=O)CSc2nnc(-c3ccncc3)n2-c2ccccc2)cc1 [Compound 6],Excitatory

# Molecular target: DAR-2 (Drosophila melanogaster, UniProt Q7KRX1)
# Sequence (Q7KRX1 entry or part of it): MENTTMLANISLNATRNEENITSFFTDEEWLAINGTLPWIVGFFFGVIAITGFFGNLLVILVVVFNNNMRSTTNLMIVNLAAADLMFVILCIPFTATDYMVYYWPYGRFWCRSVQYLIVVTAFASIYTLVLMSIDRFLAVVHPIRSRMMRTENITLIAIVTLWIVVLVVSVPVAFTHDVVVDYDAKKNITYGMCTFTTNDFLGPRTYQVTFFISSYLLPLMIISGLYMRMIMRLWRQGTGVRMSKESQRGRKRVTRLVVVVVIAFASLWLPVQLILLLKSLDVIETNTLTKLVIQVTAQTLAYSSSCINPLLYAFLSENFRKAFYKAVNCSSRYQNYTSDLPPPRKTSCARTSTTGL
# Test: DAR-2 (allatostatin receptor) calcium response FLIPR assay in transfected CHO cells
# Type: cell-based
# Conditions: CHO cells transfected with DAR-2 DNA; calcium signal (Fluo-3AM, FLIPR)
# Method: Compounds of the invention were evaluated in an allatostatin receptor binding assay as has been described (Larsen, M. J. et. al., Biochemical and Biophysical Reseach Communications, 2001, 286, 895-901; Lowery, D. E., et. al., 2001, WO 01/31005). Anthelmintic activity was evaluated in a Ascaris suum muscle tension assay as has been described (Bowman, J. W., et. al., J Neurophys., 1995, 74(5), 1880-8; Davis, R. E., et. al., J. Neurosci., 1989, 9, 403-414).
# As previously described (Larsen op.cit.), CHO cells were transfected with the DAR-2 DNA on 10 cm plates ([…]) and were trypsinized 24 h after transfections and were plated at a density of 2×10^4 cells/well in black-walled, 96-well plates and incubated for an additional 24 hrs at 37° C./5% CO2 either with or without pertussis toxin (PTX, 100 ng/ml). On the day of treatment, the media were aspirated, the cells were washed with HBBS/HEPES (Hank's Balanced Salt Solution, supplemented with 10 mM HEPES) and incubated with 4 μM Fluo-3AM in HBSS/HEPES, additionally supplemented with 2.5 mM probenecid to inhibit multi drug resistant pump (0.1 ml/well) for 1 h at 37° C./5% CO2. Plates were washed twice with warm HBSS/HEPES/ probenecid buffer immediately prior to activation of the calcium response and 100 μl buffer/per well was left after the last wash. A calcium response was initiated by the addition of candidate receptor agonist compounds (2× concentration in HBSS/HEPES, 100 μl/well). The DSK-R1/SHEP cells were loaded for 1 h at 37° C./5% CO2 with 4 μM calcium green/0.02% pluronic acid in modified Earle's balanced salt solution containing 4 mM CaCl2 dihydrate, 0.8 mM MgSO4.7H2O, 20 mM NaCl, 20 mM Tris-HEPES, 120 mM N-methyl-D-glucamine/HCl, 5.3 mM KCl, […], and 9 mM Tris base. Fluorescence was measured on a 96-well plate-based fluorescence imaging plate reader (FLIPR) with an argon laser (Molecular Devices, Sunnyvale, Calif.). Basal fluorescence of cells was measured for 20 seconds prior to addition of candidate agonist and the basal fluorescence level was subtracted from the response signal. The calcium signal was measured for approximately 200 seconds with readings every two seconds. Calcium ionophore A23187 was used as a control for non-receptor specific calcium release. […]
row,Compound,IC50
1,COc1ccc(C(=O)CSc2nnc(-c3ccncc3)n2-c2ccccc2)cc1 [Compound 6],54 nM
2,O=C(CSc1nnc(-c2ccncc2)n1-c1ccccc1)c1ccc(Cl)cc1Cl [Compound 13],1200 nM
3,O=C(CSc1nnc(-c2ccncc2)n1-c1ccccc1)c1ccc(F)cc1 [Compound 11],268 nM
4,CC(=O)Nc1ccc(C(=O)CSc2nnc(-c3ccncc3)n2-c2ccccc2)cc1[N+](=O)[O-] [Compound 9],765 nM
5,CC(=O)Nc1ccc(C(=O)CSc2nnc(-c3ccncc3)n2-c2ccccc2)cc1 [Compound 10],297 nM
6,O=C(CSc1nnc(-c2ccncc2)n1-c1ccccc1)c1ccccc1 [Compound 12],124 nM
7,O=C(CSc1nnc(-c2ccncc2)n1-c1ccccc1)c1ccc(Cl)cc1 [Compound 7],77 nM

# More lines, now with the values ahead:
row,IC50,Compound
1,0.0014 nM,COc1ccc(C(=O)CSc2nnc(-c3ccc(OC)cc3)n2-c2ccccc2)cc1 [Compound 43]
2,103 nM,COc1ccc(-n2c(SCC(=O)c3ccc4c(c3)OCCO4)nnc2-c2ccncc2)cc1 [Compound 36]
3,436 nM,O=C(CSc1nnc(-c2ccncc2)n1-c1ccccc1)c1ccc2c(c1)OCCO2 [Compound 14]
4,4500 nM,O=C(CSc1nnc(-c2ccncc2)n1-c1ccccc1)c1ccc2[nH]c(=O)oc2c1 [Compound 15]
